Our source for the Classification values is patent US20050282743A1, “Molecular interactions in cells” (Arbor Vita Corporation, priority 2001, published 2005).

Ends that are not written are not given here. Peptide text beside a SMILES is read from it. * marks the point of attachment. Biotin = O=C1N[C@H]2[C@H](CS[C@H]2CCCCC(=O)*)N1

Assay in all cases: G' assay (10 uM PL peptide), results of TABLE 7 and TABLE 12
Common to all, as to type: binding

Assay [1] concerns the target T1, PDZ protein (GST-PDZ fusion) (Homo sapiens, UniProt O14745).
T1 construct: made in house; host or cells: E. coli (DH5alpha, BL21 or JM109)
T1 sequence (O14745 1-358): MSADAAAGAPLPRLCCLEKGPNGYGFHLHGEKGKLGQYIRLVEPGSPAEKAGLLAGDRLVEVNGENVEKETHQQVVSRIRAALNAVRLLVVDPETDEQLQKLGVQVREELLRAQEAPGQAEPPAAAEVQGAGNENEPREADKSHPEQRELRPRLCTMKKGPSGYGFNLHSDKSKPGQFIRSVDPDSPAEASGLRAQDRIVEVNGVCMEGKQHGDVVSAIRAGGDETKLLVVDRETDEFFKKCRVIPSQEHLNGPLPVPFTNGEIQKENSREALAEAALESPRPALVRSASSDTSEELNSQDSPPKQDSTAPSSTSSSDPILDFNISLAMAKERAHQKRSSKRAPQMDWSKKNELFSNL
In short, it runs like this: (§1)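 Biotinylated PL peptides at 10 uM (vs 20 uM in G^0 assay) bound to GST-PDZ fusions; PDZ protein at 5 ug/ml unless another concentration listed. Bound peptide read as A450 nm, classified 0–5 (0 = A450 0; 5 = A450 >4 repeated).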

Assay [2] has as its target T2, PDZ protein (GST-PDZ fusion) (Homo sapiens, UniProt Q8TEW0).
T2 construct: made in house; host or cells: E. coli (DH5alpha, BL21 or JM109)
As to conditions: PDZ PAR3, PDZ Domain 3. In short, it runs like this:
as §1

The target of assay [3] is T3, PDZ protein (GST-PDZ fusion) (Homo sapiens, UniProt Q96RT1).
T3 construct: made in house; host or cells: E. coli (DH5alpha, BL21 or JM109)
As to conditions: PDZ Erbin, PDZ Domain 1. In short, it runs like this:
as §1

Assay [4] addresses T4, PDZ protein (GST-PDZ fusion) (Homo sapiens, UniProt Q9HD26).
T4 construct: made in house; host or cells: E. coli (DH5alpha, BL21 or JM109)
Conditions: PDZ PIST, PDZ Domain 1. In short, it runs like this: as §1

T2 sequence (Q8TEW0 whole entry, the tested form may be a part): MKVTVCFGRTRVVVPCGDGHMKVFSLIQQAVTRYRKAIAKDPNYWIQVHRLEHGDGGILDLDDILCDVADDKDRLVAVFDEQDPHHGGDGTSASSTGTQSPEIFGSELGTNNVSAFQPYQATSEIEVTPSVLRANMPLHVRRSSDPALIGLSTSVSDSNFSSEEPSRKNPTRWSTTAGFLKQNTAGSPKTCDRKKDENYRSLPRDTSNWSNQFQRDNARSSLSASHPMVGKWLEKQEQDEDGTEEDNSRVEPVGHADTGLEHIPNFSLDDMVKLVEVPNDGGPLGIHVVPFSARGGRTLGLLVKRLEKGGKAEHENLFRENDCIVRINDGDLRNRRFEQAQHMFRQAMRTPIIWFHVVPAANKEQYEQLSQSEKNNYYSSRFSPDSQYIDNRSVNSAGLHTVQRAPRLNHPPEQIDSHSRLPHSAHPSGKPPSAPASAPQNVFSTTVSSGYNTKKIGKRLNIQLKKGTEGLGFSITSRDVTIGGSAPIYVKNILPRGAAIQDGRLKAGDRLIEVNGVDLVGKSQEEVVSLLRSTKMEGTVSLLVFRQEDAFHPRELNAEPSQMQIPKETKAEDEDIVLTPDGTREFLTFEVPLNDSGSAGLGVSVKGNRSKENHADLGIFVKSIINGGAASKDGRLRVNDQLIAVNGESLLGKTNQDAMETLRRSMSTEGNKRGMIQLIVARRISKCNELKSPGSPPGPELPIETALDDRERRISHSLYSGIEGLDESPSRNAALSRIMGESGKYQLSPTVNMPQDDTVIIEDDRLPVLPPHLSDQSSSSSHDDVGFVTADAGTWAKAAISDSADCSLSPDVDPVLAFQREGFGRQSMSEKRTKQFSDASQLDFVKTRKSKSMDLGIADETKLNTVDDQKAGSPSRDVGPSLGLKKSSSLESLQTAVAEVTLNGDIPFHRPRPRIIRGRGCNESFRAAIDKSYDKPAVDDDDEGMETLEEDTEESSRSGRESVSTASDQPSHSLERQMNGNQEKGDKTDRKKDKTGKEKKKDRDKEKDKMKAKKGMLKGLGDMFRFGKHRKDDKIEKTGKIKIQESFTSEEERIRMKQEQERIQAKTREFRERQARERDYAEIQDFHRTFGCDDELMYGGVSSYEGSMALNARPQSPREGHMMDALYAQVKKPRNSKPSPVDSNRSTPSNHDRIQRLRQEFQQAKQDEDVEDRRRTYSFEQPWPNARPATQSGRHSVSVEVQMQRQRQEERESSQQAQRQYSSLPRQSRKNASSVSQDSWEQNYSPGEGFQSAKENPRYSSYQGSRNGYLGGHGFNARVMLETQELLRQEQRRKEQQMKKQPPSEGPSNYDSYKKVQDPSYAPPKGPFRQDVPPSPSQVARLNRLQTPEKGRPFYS
T3 sequence (Q96RT1 whole entry, the tested form may be a part): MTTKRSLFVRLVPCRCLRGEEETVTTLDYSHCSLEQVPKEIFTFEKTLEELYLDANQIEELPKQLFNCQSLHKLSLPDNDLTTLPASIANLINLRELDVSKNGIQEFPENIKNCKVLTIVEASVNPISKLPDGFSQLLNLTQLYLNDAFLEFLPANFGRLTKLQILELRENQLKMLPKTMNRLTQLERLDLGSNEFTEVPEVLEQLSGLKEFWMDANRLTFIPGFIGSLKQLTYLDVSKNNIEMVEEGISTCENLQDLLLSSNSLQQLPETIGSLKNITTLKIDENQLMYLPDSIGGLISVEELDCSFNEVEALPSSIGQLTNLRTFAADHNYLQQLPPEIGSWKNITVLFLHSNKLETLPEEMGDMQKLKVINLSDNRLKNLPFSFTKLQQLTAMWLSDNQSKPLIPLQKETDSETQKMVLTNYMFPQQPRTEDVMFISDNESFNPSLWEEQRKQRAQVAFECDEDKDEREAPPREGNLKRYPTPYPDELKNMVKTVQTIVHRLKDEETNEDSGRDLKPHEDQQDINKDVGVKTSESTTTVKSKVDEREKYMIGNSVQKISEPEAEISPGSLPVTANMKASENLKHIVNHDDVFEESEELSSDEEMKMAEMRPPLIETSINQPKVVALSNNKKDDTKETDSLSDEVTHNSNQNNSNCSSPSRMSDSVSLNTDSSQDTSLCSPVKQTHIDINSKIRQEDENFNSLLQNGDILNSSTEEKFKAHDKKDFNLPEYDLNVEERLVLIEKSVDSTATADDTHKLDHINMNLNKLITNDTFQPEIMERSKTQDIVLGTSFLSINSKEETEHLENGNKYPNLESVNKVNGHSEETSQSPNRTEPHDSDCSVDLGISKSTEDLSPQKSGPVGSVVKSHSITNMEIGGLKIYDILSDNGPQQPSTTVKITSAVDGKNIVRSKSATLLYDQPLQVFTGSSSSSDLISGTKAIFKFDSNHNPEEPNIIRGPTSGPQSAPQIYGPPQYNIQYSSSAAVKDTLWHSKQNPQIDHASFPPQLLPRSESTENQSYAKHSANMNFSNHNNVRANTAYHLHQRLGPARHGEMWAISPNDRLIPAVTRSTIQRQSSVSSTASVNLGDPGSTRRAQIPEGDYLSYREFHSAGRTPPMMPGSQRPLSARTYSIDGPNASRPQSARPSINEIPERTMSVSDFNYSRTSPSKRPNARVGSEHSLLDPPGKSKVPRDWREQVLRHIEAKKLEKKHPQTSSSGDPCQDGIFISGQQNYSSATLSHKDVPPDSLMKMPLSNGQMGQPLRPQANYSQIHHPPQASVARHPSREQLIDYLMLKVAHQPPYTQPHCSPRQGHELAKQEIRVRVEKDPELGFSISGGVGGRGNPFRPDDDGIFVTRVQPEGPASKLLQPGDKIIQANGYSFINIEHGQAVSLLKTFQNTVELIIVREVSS

For `CC(C)C[C@H](NC(=O)CNC(=O)[C@@H](NC(=O)[C@H](CO)NC(=O)[C@H](CC(N)=O)NC(=O)[C@H](Cc1ccccc1)NC(=O)CNC(=O)[C@H](C)NC(=O)[C@H](C)NC(=O)[C@H](Cc1ccccc1)NC(=O)[C@@H](NC(=O)CCCC[C@@H]1SC[C@@H]2NC(=O)N[C@@H]21)[C@@H](C)O)[C@@H](C)O)C(=O)N1CCC[C@H]1C(=O)N[C@@H](Cc1c[nH]cn1)C(=O)N[C@@H](CO)C(=O)N[C@H](C(=O)N[C@H](C(=O)N[C@@H](CCCNC(=N)N)C(=O)N[C@H](C(=O)O)C(C)C)[C@@H](C)O)[C@@H](C)O` [Neuroligin] (Biotin-TFAAGFNSTGLPHSTTRV-OH; C-terminus assumed), the Classification in assay [1] (PDZ EBP50, PDZ Domain 1) is reported as 2 (A450 nm 1-2); in assay [1] (PDZ EBP50, PDZ Domain 2), 1 (A450 nm 0-1). Regarding `CC[C@H](C)[C@H](NC(=O)[C@H](Cc1ccc(O)cc1)NC(=O)[C@@H](NC(=O)[C@@H]1CCCN1C(=O)[C@H](CCC(N)=O)NC(=O)[C@H](CCC(=O)O)NC(=O)[C@H](CCC(N)=O)NC(=O)[C@H](C)NC(=O)[C@@H](NC(=O)[C@H](CC(C)C)NC(=O)[C@H](CC(C)C)NC(=O)[C@H](CCCNC(=N)N)NC(=O)[C@H](Cc1ccc(O)cc1)NC(=O)[C@H](CCSC)NC(=O)[C@H](C)NC(=O)[C@H](C)NC(=O)[C@@H]1CCCN1C(=O)[C@H](CCSC)NC(=O)[C@@H](NC(=O)[C@H](CCCCN)NC(=O)CCCC[C@@H]1SC[C@@H]2NC(=O)N[C@@H]21)[C@@H](C)O)[C@@H](C)O)C(C)C)C(=O)O` [MINT-1] (Biotin-KTMPAAMYRLLTAQEQPVYI-OH; C-terminus assumed), the Classification in assay [2] is recorded as 5 (A450 nm of 4 more than 2× repeated). Same read-out and setting: then `CC[C@H](C)[C@H](NC(=O)[C@H](C)NC(=O)[C@H](CC(C)C)NC(=O)[C@H](Cc1c[nH]c2ccccc12)NC(=O)[C@H](Cc1c[nH]cn1)NC(=O)[C@H](CCC(N)=O)NC(=O)[C@H](CC(C)C)NC(=O)[C@H](CCC(N)=O)NC(=O)[C@H](Cc1ccccc1)NC(=O)[C@H](CCC(N)=O)NC(=O)[C@H](CCCNC(=N)N)NC(=O)[C@@H](NC(=O)[C@H](CC(=O)O)NC(=O)[C@H](CCCNC(=N)N)NC(=O)[C@H](CCC(N)=O)NC(=O)[C@H](C)NC(=O)[C@@H](NC(=O)[C@H](CC(C)C)NC(=O)[C@H](Cc1c[nH]cn1)NC(=O)[C@H](Cc1c[nH]cn1)NC(=O)CCCC[C@@H]1SC[C@@H]2NC(=O)N[C@@H]21)C(C)C)[C@@H](C)CC)C(=O)O` [noradrenaline transporter] (Biotin-HHLVAQRDIRQFQLQHWLAI-OH; C-terminus assumed), with 4 (A450 nm 3-4). `CC[C@H](C)[C@H](NC(=O)[C@H](CCC(N)=O)NC(=O)CCCC[C@@H]1SC[C@@H]2NC(=O)N[C@@H]21)C(=O)N[C@@H](CO)C(=O)N1CCC[C@H]1C(=O)NCC(=O)NCC(=O)N[C@@H](CC(C)C)C(=O)N[C@@H](CCC(=O)O)C(=O)N1CCC[C@H]1C(=O)N1CCC[C@H]1C(=O)N[C@@H](CO)C(=O)N[C@@H](CCC(=O)O)C(=O)N[C@@H](CCCCN)C(=O)N[C@@H](Cc1c[nH]cn1)C(=O)N[C@@H](Cc1ccccc1)C(=O)N[C@@H](CCCNC(=N)N)C(=O)N[C@@H](CCC(=O)O)C(=O)N[C@H](C(=O)N[C@@H](CCC(=O)O)C(=O)N[C@H](C(=O)O)C(C)C)[C@@H](C)O` [Tax]: the Classification in assay [3] is reported as 5 (A450 nm of 4 more than 2× repeated). For the compound TQGFPGPATWRRISSLESEV, the Classification in assay [3] was 4 (A450 nm 3-4).

Take `CC[C@H](C)[C@H](NC(=O)[C@H](CCCCN)NC(=O)[C@@H](NC(=O)[C@H](CO)NC(=O)[C@@H]1CCCN1C(=O)[C@H](Cc1ccccc1)NC(=O)[C@@H](NC(=O)[C@@H](NC(=O)[C@H](CCCNC(=N)N)NC(=O)[C@H](CCC(=O)O)NC(=O)[C@H](CC(C)C)NC(=O)[C@H](CC(C)C)NC(=O)[C@H](CC(C)C)NC(=O)[C@@H](NC(=O)CNC(=O)[C@@H](NC(=O)CCCC[C@@H]1SC[C@@H]2NC(=O)N[C@@H]21)C(C)C)[C@@H](C)O)C(C)C)[C@@H](C)CC)C(C)C)C(=O)N[C@@H](C)C(=O)N[C@H](C(=O)N[C@@H](CC(C)C)C(=O)N[C@H](C(=O)O)C(C)C)[C@@H](C)O` [Adenovirus E4 Type9]: in assay [4] (PL peptide 10 uM), the Classification is 1 (A450 nm 0-1).

On to “LASKSAEEGKQIPDSLSTDL (Biotin-LASKSAEEGKQIPDSLSTDL) [Dock2]”, for which the Classification was 1 (A450 nm 0-1) in assay [1] (PDZ EBP50, PDZ Domain 1) and 2 (A450 nm 1-2) in assay [1] (PDZ EBP50, PDZ Domain 2). For the compound “VHDAESSDEDGYDWGPATDL (Biotin-VHDAESSDEDGYDWGPATDL) [zona occludens 3 (ZO-3)]”, the Classification in assay [2] is 1 (A450 nm 0-1). For “GPVPGEPAKPKTSAHHATFV (Biotin-GPVPGEPAKPKTSAHHATFV)”, the Classification in assay [4] is 1 (A450 nm 0-1). Turning to `CC[C@H](C)[C@H](NC(=O)[C@H](Cc1ccc(O)cc1)NC(=O)[C@H](CC(C)C)NC(=O)[C@H](CCC(N)=O)NC(=O)[C@H](Cc1c[nH]cn1)NC(=O)[C@H](CO)NC(=O)[C@H](C)NC(=O)[C@H](CC(C)C)NC(=O)[C@@H](NC(=O)[C@H](CC(=O)O)NC(=O)[C@H](CCSC)NC(=O)[C@H](Cc1ccccc1)NC(=O)[C@@H]1CCCN1C(=O)[C@H](CCCNC(=N)N)NC(=O)[C@@H](NC(=O)[C@H](CC(C)C)NC(=O)[C@H](CC(N)=O)NC(=O)[C@H](CC(=O)O)NC(=O)[C@@H](NC(=O)[C@H](CO)NC(=O)CCCC[C@@H]1SC[C@@H]2NC(=O)N[C@@H]21)[C@@H](C)O)C(C)C)[C@@H](C)O)C(=O)O` [presenilin-2] (Biotin-STDNLVRPFMDTLASHQLYI-OH; C-terminus assumed), the Classification in assay [2] is on record as 5 (A450 nm of 4 more than 2× repeated).

As for “PPATPSPRLALPAHHNATRL (Biotin-PPATPSPRLALPAHHNATRL) [Na+/Pi cotransporter 2]”, the Classification in assay [4] is 1 (A450 nm 0-1); in assay [1] (PDZ EBP50, PDZ Domain 1) it was 5 (A450 nm of 4 more than 2× repeated); in assay [1] (PDZ EBP50, PDZ Domain 2) it was 2 (A450 nm 1-2). As for `CC[C@H](C)[C@H](NC(=O)[C@H](CCC(N)=O)NC(=O)[C@@H](NC(=O)[C@H](Cc1c[nH]cn1)NC(=O)[C@H](CCC(N)=O)NC(=O)[C@H](CC(=O)O)NC(=O)[C@H](CCC(=O)O)NC(=O)[C@H](CC(=O)O)NC(=O)[C@H](Cc1ccccc1)NC(=O)[C@@H]1CCCN1C(=O)[C@H](CCC(=O)O)NC(=O)[C@H](CC(N)=O)NC(=O)[C@H](CCC(=O)O)NC(=O)[C@@H]1CCCN1C(=O)[C@H](CC(=O)O)NC(=O)[C@H](CO)NC(=O)[C@H](CC(=O)O)NC(=O)CCCC[C@@H]1SC[C@@H]2NC(=O)N[C@@H]21)[C@@H](C)O)C(=O)N[C@H](C(=O)N[C@@H](CCCCN)C(=O)N[C@H](C(=O)O)C(C)C)[C@@H](C)O` [PTEN], the Classification in assay [4] is recorded as 1 (A450 nm 0-1).

As to “KTMPAAMFRLLTGQETPLYI (Biotin-KTMPAAMFRLLTGQETPLYI) [MINT-2]”, in assay [2], the Classification was 5 (A450 nm of 4 more than 2× repeated).

With “A2AA_HUMAN (modified) (Biotin-HDFRRAFKKILARGDRKRIV; not fully specified)”, the Classification in assay [2] was 2 (A450 nm 1-2). In the case of `CC[C@H](C)[C@H](NC(=O)CNC(=O)[C@H](CO)NC(=O)[C@H](Cc1ccccc1)NC(=O)[C@@H](NC(=O)[C@H](CS)NC(=O)CNC(=O)CNC(=O)[C@H](C)NC(=O)[C@@H]1CCCN1C(=O)[C@@H](NC(=O)[C@@H]1CCCN1C(=O)CCCC[C@@H]1SC[C@@H]2NC(=O)N[C@@H]21)[C@@H](C)CC)[C@@H](C)O)C(=O)N[C@@H](Cc1ccccc1)C(=O)N1CCC[C@H]1C(=O)N[C@H](C(=O)N[C@@H](CC(C)C)C(=O)N[C@H](C(=O)N[C@@H](CO)C(=O)N1CCC[C@H]1C(=O)N[C@@H](CC(C)C)C(=O)O)[C@@H](C)O)[C@@H](C)O` [KIA 1481] (Biotin-PIPAGGCTFSGIFPTLTSPL-OH; C-terminus assumed), the Classification in assay [1] (PDZ EBP50, PDZ Domain 1) was 2 (A450 nm 1-2); in assay [1] (PDZ EBP50, PDZ Domain 2), 2 (A450 nm 1-2). With `CC[C@H](C)[C@H](NC(=O)[C@H](CC(=O)O)NC(=O)[C@H](CCC(=O)O)NC(=O)[C@H](CCCNC(=N)N)NC(=O)[C@@H](NC(=O)CCCC[C@@H]1SC[C@@H]2NC(=O)N[C@@H]21)[C@@H](C)O)C(=O)N[C@@H](Cc1ccc(O)cc1)C(=O)N[C@H](C(=O)N[C@@H](CC(N)=O)C(=O)N[C@@H](Cc1ccc(O)cc1)C(=O)N1CCC[C@H]1C(=O)N[C@H](C(=O)N[C@@H](Cc1ccccc1)C(=O)N[C@@H](CO)C(=O)N[C@@H](CCCNC(=N)N)C(=O)N[C@@H](CCCNC(=N)N)C(=O)N1CCC[C@H]1C(=O)N[C@@H](CCCCN)C(=O)N[C@H](C(=O)N[C@@H](CCCNC(=N)N)C(=O)N[C@H](C(=O)O)C(C)C)[C@@H](C)O)[C@@H](C)O)C(C)C` [DNAM-1] (Biotin-TREDIYVNYPTFSRRPKTRV-OH; C-terminus assumed), the Classification is 4 (A450 nm 3-4) in assay [4]; 1 (A450 nm 0-1) in assay [1] (PDZ EBP50, PDZ Domain 1); 1 (A450 nm 0-1) in assay [1] (PDZ EBP50, PDZ Domain 2).
